By Inhibition is commonly meant the share of the control response that was lost under treatment. Higher therefore signals strong suppression. As a reminder, the IC50 is the midpoint of a concentration-inhibition curve. Read a high IC50 as lower potency.

Where only a bound is given, the exact number is not on record here.

The first assay is filed under the species Oryctolagus cuniculus. Description: Inhibition of rabbit osteoclast-mediated resorption of dentine at 100 uM; 0-35% inhibition. It counts as functional.
Take `CC(=O)NC(Cc1ccc(OCC(=O)O)c(P(=O)(O)O)c1)C(=O)N[C@@H](C)c1ccc(OCC2CCCCC2)c(C(N)=O)c1` (some centres undefined): the Inhibition was 0%.

In a further assay the target is Proto-oncogene tyrosine-protein kinase Src (Homo sapiens, UniProt P12931). Briefly: Inhibition of binding to Src SH2 domain.
Proto-oncogene tyrosine-protein kinase Src, sequence (P12931 2-536 limits assumed): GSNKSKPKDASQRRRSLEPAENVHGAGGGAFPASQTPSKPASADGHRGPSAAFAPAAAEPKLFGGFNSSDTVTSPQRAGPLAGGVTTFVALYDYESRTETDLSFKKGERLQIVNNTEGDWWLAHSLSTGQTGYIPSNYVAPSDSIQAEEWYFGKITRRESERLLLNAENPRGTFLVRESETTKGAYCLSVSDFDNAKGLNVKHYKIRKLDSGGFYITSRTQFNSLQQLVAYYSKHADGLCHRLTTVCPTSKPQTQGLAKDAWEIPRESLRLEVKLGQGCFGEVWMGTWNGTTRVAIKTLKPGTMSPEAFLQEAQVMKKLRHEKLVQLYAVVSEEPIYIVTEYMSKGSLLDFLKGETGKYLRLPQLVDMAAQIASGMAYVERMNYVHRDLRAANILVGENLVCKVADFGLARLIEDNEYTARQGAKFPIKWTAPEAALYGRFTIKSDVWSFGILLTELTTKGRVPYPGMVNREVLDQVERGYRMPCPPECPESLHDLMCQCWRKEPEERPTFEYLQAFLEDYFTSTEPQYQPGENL
In turn, `CC(=O)NC(Cc1ccc(OCC(=O)O)c(P(=O)(O)O)c1)C(=O)NCc1ccc(OCC2CCCCC2)c(C(N)=O)c1` (centres undefined) displayed a concentration for half-maximal inhibition (IC50) of 378 µM.

In turn, `CC(=O)NC(Cc1ccc(OCC(=O)O)c(P(=O)(O)O)c1)C(=O)Nc1ccc(OCC2CCCCC2)c(C(N)=O)c1` (centres undefined) displayed a concentration for half-maximal inhibition (IC50) greater than 500 µM.

Consider `CC(=O)NC(Cc1ccc(OCC(=O)O)cc1)C(=O)N[C@@H](C)c1ccc(OCC2CCCCC2)c(C(N)=O)c1` (some centres undefined), for which the half-inhibitory concentration (IC50) worked out at 370 µM.

`CC(C)(NC(=O)CCc1ccc(OCC(=O)O)c(P(=O)(O)O)c1)c1ccc(OCC2CCCCC2)c(C(N)=O)c1` came in with a 50% inhibitory concentration (IC50) of 35.4 µM.

In turn, `CC(C)(NC(=O)CCc1ccc(O)c(P(=O)(O)O)c1)c1ccc(OCC2CCCCC2)c(C(N)=O)c1` showed an IC50 greater than 500 µM.

In turn, `CCOP(=O)(O)c1cc(CC(NC(C)=O)C(=O)N[C@@H](C)c2ccc(OCC3CCCCC3)c(C(N)=O)c2)ccc1OCC(=O)O` (some centres undefined) displayed an IC50 of 7.3 µM.

`CC(=O)NC(Cc1ccc(OCC(=O)O)c(P(=O)(O)O)c1)C(=O)NC(C)(C)c1ccc(OCC2CCCCC2)c(C(N)=O)c1` (centres undefined): the concentration for half-maximal inhibition (IC50) turned out to be 3.2 µM.

`CC(C)(NC(=O)CCc1ccc(OCn2cnnn2)c(P(=O)(O)O)c1)c1ccc(OCC2CCCCC2)c(C(N)=O)c1`: the IC50 was greater than 500 µM.

Take `CC(C)(NC(=O)CCc1ccc(OS(=O)(=O)C(F)(F)F)c(P(=O)(O)O)c1)c1ccc(OCC2CCCCC2)c(C(N)=O)c1`: the half-maximal inhibitory concentration (IC50) was greater than 500 µM.

In a further assay the target is T1, Tyrosine-protein kinase ZAP-70 (Homo sapiens, UniProt P43403).
T1 sequence (P43403 whole entry): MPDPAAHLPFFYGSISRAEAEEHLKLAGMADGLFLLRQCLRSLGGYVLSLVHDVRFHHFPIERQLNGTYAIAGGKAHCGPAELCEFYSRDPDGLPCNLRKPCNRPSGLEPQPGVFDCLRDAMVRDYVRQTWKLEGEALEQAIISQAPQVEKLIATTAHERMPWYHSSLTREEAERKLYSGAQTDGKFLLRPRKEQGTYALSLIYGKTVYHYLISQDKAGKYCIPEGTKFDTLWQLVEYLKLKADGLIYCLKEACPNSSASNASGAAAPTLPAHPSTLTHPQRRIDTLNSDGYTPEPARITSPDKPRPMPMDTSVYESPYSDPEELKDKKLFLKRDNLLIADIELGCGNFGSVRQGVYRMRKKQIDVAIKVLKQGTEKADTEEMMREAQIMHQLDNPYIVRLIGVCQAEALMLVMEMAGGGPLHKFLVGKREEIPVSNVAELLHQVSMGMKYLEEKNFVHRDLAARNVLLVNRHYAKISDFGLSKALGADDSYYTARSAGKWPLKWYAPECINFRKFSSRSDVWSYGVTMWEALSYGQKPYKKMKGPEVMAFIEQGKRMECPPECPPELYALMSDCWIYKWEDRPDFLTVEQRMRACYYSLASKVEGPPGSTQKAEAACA
Briefly: Inhibition of binding to Zap70 protein kinase.
For `CC(=O)NC(Cc1ccc(OCC(=O)O)c(P(=O)(O)O)c1)C(=O)N[C@@H](C)c1ccc(OCC2CCCCC2)c(C(N)=O)c1` (some centres undefined), the IC50 was greater than 500 µM.

`CC(=O)NC(Cc1ccc(OCC(=O)O)c(P(=O)(O)O)c1)C(=O)NCc1ccc(OCC2CCCCC2)c(C(N)=O)c1` (centres undefined) yielded an IC50 greater than 500 µM.

`CC(=O)NC(Cc1ccc(OCC(=O)O)c(P(=O)(O)O)c1)C(=O)Nc1ccc(OCC2CCCCC2)c(C(N)=O)c1` (centres undefined): the IC50 is greater than 500 µM.

Molecule `CC(C)(NC(=O)CCc1ccc(OCC(=O)O)c(P(=O)(O)O)c1)c1ccc(OCC2CCCCC2)c(C(N)=O)c1` gave a half-maximal inhibitory concentration (IC50) greater than 500 µM.

Molecule `CC(C)(NC(=O)CCc1ccc(O)c(P(=O)(O)O)c1)c1ccc(OCC2CCCCC2)c(C(N)=O)c1` returned an IC50 greater than 500 µM.

`CCOP(=O)(O)c1cc(CC(NC(C)=O)C(=O)N[C@@H](C)c2ccc(OCC3CCCCC3)c(C(N)=O)c2)ccc1OCC(=O)O` (some centres undefined) showed an IC50 greater than 500 µM.

The molecule `CC(=O)NC(Cc1ccc(OCC(=O)O)c(P(=O)(O)O)c1)C(=O)NC(C)(C)c1ccc(OCC2CCCCC2)c(C(N)=O)c1` (centres undefined) registered a half-maximal inhibitory concentration (IC50) greater than 500 µM.

In turn, `CC(=O)NC(Cc1ccc(OP(=O)(O)O)cc1)C(=O)N[C@@H](C)c1ccc(OCC2CCCCC2)c(C(N)=O)c1` (some centres undefined) registered an IC50 of 441 µM.

With `CC(C)(NC(=O)CCc1ccc(OCn2cnnn2)c(P(=O)(O)O)c1)c1ccc(OCC2CCCCC2)c(C(N)=O)c1`, the IC50 is greater than 500 µM.

Take `CC(C)(NC(=O)CCc1ccc(OS(=O)(=O)C(F)(F)F)c(P(=O)(O)O)c1)c1ccc(OCC2CCCCC2)c(C(N)=O)c1`: the IC50 is greater than 500 µM.

The target in the next assay is Tyrosine-protein kinase Yes (Homo sapiens, UniProt P07947). Description: Inhibition of binding to Yes SH2 domain.
Tyrosine-protein kinase Yes, sequence (P07947 whole entry, the tested form may be a part): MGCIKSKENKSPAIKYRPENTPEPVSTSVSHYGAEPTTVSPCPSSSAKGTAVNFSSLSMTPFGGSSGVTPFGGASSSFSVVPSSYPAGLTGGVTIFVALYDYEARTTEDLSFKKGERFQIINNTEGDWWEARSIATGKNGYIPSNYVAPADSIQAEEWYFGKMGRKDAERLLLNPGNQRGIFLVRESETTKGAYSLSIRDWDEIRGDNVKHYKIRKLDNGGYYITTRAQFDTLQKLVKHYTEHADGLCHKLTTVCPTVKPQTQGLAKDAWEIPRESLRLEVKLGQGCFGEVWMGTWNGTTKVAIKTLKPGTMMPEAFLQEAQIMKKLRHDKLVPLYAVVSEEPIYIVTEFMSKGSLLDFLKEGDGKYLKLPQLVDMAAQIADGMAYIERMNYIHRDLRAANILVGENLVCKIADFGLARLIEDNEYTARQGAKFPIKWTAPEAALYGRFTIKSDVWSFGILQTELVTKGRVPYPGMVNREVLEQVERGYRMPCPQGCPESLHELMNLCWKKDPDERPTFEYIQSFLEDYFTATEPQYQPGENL
In the case of `CC(=O)NC(Cc1ccc(OCC(=O)O)c(P(=O)(O)O)c1)C(=O)N[C@@H](C)c1ccc(OCC2CCCCC2)c(C(N)=O)c1` (some centres undefined), the concentration for half-maximal inhibition (IC50) stood at 110 µM.

Consider `CC(=O)NC(Cc1ccc(OCC(=O)O)c(P(=O)(O)O)c1)C(=O)NCc1ccc(OCC2CCCCC2)c(C(N)=O)c1` (centres undefined), for which the IC50 was greater than 500 µM.

The molecule `CC(=O)NC(Cc1ccc(OCC(=O)O)c(P(=O)(O)O)c1)C(=O)Nc1ccc(OCC2CCCCC2)c(C(N)=O)c1` (centres undefined) came in with a half-maximal inhibitory concentration (IC50) greater than 500 µM.

Molecule `CC(=O)NC(Cc1ccc(OCC(=O)O)cc1)C(=O)N[C@@H](C)c1ccc(OCC2CCCCC2)c(C(N)=O)c1` (some centres undefined) had an IC50 greater than 500 µM.

`CC(C)(NC(=O)CCc1ccc(OCC(=O)O)c(P(=O)(O)O)c1)c1ccc(OCC2CCCCC2)c(C(N)=O)c1`: the IC50 is 303 µM.

On to `CC(C)(NC(=O)CCc1ccc(O)c(P(=O)(O)O)c1)c1ccc(OCC2CCCCC2)c(C(N)=O)c1`, for which the IC50 is greater than 500 µM.

Molecule `CCOP(=O)(O)c1cc(CC(NC(C)=O)C(=O)N[C@@H](C)c2ccc(OCC3CCCCC3)c(C(N)=O)c2)ccc1OCC(=O)O` (some centres undefined) yielded an IC50 of 156 µM.

With `CC(C)(NC(=O)CCc1ccc(OCn2cnnn2)c(P(=O)(O)O)c1)c1ccc(OCC2CCCCC2)c(C(N)=O)c1`, the IC50 is greater than 500 µM.

Turning to `CC(C)(NC(=O)CCc1ccc(OS(=O)(=O)C(F)(F)F)c(P(=O)(O)O)c1)c1ccc(OCC2CCCCC2)c(C(N)=O)c1`, the IC50 was greater than 500 µM.
